Laboratory results as given in BindingDB's records for doi:10.1016/j.ejmech.2015.04.052 (University of Barcelona, 2015).

Columns and labels:
[1] = Displacement of [3H]-YM09151-2 from dopamine D2 receptor (unknown origin) expressed in sheep striatum membranes assessed as high affinity constant after 2 hrs by scintillation counting analysis
[2] = Displacement of [3H]-SCH23390 from dopamine D1 receptor (unknown origin) expressed in sheep striatum membranes after […] by scintillation counting analysis
[3] = Displacement of [3H]-YM09151-2 from dopamine D2 receptor (unknown origin) expressed in sheep striatum membranes assessed as low affinity constant after 2 hrs by scintillation counting analysis
[4] = Displacement of [3H]-R-PIA from adenosine A1 receptor (unknown origin) expressed in sheep striatum membranes after 2 hrs by scintillation counting analysis

Kd [1]	Kd [2]	Kd [3]	Kd [4]	SMILES
190 nM	1300 nM	8000 nM	> 100000 nM	CCCC[C@H](NC(=O)[C@H]1CC[C@@H]2c3[nH]c4ccccc4c3CCN2C1)C(=O)N[C@@H](Cc1ccc(F)c(F)c1)C(=O)N[C@@H](CCCCN)C(N)=O
4700 nM	1200 nM		> 100000 nM	CCCC[C@H](NC(=O)[C@H]1CC[C@@H]2c3[nH]c4ccccc4c3CCN2C1)C(=O)N[C@@H](Cc1ccc(O)cc1)C(=O)N[C@@H](CCCCN)C(N)=O
